Measurements published in PMC2628307 (Journal of the American Chemical Society, 2008).
Several values for one entry are separate records, joined by “and”; a condition that tells them apart may be missing. Equal entries are not always repeated. Structures can show the parent of a compound that is named as a salt. Where two headings read alike, the source gives them in different places.

Tests used:
[1] = physchem
[2] = molecular target: T1, PP1γ (Homo sapiens, UniProt P36873); assay type: biochemical; details: for activity as PP1γ substrate: pH 8
[3] = molecular target: PP1 H125A mutant (Homo sapiens, UniProt P36873, H125A); assay: 4NPP hydrolysis by PP1 H125A mutant; assay type: biochemical
[4] = test system: calcineurin; details: cited from earlier work
[5] = Dianion H2O attack, 95° C; cited from earlier work
[6] = test system: native PTPs YopH, VHR, and PTP1; details: cited from earlier work
[7] = molecular target: PP1 (Homo sapiens, UniProt P36873); assay: Kinetic isotope effects of PP1-catalyzed hydrolysis; assay type: biochemical; details: 25 °C, pH 7.0
[8] = 25 °C; cited from earlier work
[9] = molecular target: T1, PP1γ
[10] = molecular target: alkaline phosphatase; details: cited from earlier work
[11] = molecular target: PP1; details: tighter binding peptide substrate; cited from earlier work

T1 sequence (P36873 whole entry): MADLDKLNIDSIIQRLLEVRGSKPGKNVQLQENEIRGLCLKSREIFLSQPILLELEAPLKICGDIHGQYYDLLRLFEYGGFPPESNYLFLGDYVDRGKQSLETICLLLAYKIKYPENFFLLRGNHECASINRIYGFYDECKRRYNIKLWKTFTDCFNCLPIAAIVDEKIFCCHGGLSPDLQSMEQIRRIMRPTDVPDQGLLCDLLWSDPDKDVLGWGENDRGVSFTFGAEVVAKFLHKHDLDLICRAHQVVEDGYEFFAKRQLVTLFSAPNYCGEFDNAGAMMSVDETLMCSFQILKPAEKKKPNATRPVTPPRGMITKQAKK
Sequence of PP1 (Homo sapiens, UniProt P36873) (P36873 whole entry): as above
Sequence of PP1 H125A mutant (P36873 2-323 H125A): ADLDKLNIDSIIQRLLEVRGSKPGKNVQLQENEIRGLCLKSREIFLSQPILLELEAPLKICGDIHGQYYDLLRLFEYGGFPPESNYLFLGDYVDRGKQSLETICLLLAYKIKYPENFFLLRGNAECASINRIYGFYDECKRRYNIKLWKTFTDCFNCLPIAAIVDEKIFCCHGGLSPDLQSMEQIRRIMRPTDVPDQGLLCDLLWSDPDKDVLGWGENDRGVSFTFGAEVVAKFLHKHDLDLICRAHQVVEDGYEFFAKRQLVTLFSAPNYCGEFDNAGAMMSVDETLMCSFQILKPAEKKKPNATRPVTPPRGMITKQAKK

SMILES: O=[N+]([O-])c1ccc(O)cc1 [4-nitro, p-nitrophenol]
- pKa [1]: 7.01

SMILES: COP(=O)(O)Oc1ccc([N+](=O)[O-])cc1 [4-nitrophenyl methyl phosphate]
- activity as PP1γ substrate [2]: significant activity

SMILES: O=[N+]([O-])c1ccc(OS(=O)(=O)O)cc1 [4-nitrophenyl sulfate]
- activity as PP1γ substrate [2]: little activity

SMILES: O=[N+]([O-])c1ccc(OP(O)(O)=S)cc1 [4-nitrophenyl thiophosphate]
- activity as PP1γ substrate [2]: little activity

SMILES: O=[N+]([O-])c1ccc(OP(=O)(O)O)cc1 [4NPP, 4-nitrophenyl phosphate]
- activity for 4NPP hydrolysis [3]: no detectable activity
- ^18(V/K)nonbridge ([4]; calcineurin with Mg^2+ at the active site): 0.9910
- ^18(V/K)nonbridge ([4]; calcineurin with Mn^+2 at the active site): 0.9942
- ^15k [5]: 1.0028(2)
- ^18knonbridge [5]: 0.9994 (5)
- ^18knonbridge per atom [5]: 0.9998 (5)
- ^15k [6]: 0.9999-1.0001
- ^18knonbridge [6]: 0.9998-1.0003 and 1.0118-1.0152
- ^18knonbridge per atom [6]: 0.9999-01.0001
- ^18knonbridge [7]: 0.9959 (4)
- ^18knonbridge per atom [7]: 0.9986 (4)
- pseudo-first order rate constant of water reaction of the dianion [8]: 2e-09 s⁻¹
- change in rate of hydrolysis with viscosigens ([2]; 20% sucrose or glycerol): no changes

SMILES: O=P(O)(O)O [inorganic phosphate]
- Ki ([9]; pH 8, 4NPMP hydrolysis, compared with Ki for the 4NPP reaction): same Ki
- Ki ([9]; pH 8.0, 4NPP hydrolysis, competitive inhibition, equation 2): 1.2 ± 0.2 mM
- Ki [10]: ~0.001 mM
- Ki [11]: 1.6 ± 0.9 mM
